Laboratory results: paper PMC9719863 (Molecular Metabolism, 2022)
Where two headings read alike, the source gives them in different places. *1 amine or outer side, *2 acyl side, *3 side chain or, on linkers, in order; H or OH if unused. Where a SMILES comes first, the peptide text is derived from it. Side-chain parts run from the residue outwards. [ ]: non-standard residue; d: D form. The star is where a group is joined. γGlu = O=C(O)[C@H](CCC(=O)[*:2])N[*:1]; Palmitoyl = CCCCCCCCCCCCCCCC(=O)*; PhLac = O=C(O)[C@@H](O)Cc1ccccc1

Columns and labels:
hGIPR [1] = molecular target: T1, hGIPR (Homo sapiens, UniProt P48546); test: cAMP CRE-luciferase assay in BHK cells expressing GIPR; type: cell-based; settings: agonist mode, without native ligand
T1 sequence (P48546 22-466): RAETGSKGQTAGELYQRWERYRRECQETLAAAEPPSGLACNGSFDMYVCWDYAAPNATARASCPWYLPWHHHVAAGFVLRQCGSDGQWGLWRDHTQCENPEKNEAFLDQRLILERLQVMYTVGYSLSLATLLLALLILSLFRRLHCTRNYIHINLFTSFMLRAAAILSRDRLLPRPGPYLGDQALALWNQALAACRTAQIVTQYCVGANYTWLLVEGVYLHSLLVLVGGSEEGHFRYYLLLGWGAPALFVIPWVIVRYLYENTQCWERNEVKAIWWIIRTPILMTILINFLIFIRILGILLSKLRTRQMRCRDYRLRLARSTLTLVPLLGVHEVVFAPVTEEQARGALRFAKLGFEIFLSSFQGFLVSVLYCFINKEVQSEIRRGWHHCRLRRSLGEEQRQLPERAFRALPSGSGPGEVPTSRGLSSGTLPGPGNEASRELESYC

mGIPR [2] = molecular target: T2, mGIPR (Mus musculus, UniProt Q0P543); test: as above; type: cell-based; settings: for Agonism at the mGIPR (cAMP production by peptide alone): agonist mode, without native ligand
T2 sequence (Q0P543 19-460): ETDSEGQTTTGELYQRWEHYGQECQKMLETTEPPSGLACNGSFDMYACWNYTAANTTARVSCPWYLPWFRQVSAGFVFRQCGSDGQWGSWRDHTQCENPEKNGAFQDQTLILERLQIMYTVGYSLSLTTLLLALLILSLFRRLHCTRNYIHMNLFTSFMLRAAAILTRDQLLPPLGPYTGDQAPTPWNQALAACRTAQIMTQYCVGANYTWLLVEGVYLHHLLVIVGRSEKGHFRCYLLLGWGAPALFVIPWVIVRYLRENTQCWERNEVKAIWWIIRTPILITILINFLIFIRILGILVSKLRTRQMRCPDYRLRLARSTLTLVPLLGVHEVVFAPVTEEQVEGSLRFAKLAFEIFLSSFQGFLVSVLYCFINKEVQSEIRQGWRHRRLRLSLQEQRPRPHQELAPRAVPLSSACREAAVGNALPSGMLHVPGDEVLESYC

mGIPR [3] = molecular target: T2, mGIPR; type: binding
hGIPR [4] = molecular target: T1, hGIPR; type: binding

CC[C@H](C)[C@H](NC(=O)[C@H](CO)NC(=O)[C@H](Cc1ccc(O)cc1)NC(=O)[C@H](CC(=O)O)NC(=O)[C@H](CO)NC(=O)[C@@H](NC(=O)[C@H](Cc1ccccc1)NC(=O)[C@@H](NC(=O)CNC(=O)[C@@H](N)CCC(=O)O)[C@@H](C)O)[C@@H](C)CC)C(=O)N[C@@H](C)C(=O)N[C@@H](CCSC)C(=O)N[C@@H](CC(=O)O)C(=O)N[C@@H](CCCCN)C(=O)N[C@H](C(=O)N[C@@H](Cc1c[nH]cn1)C(=O)N[C@@H](CCC(N)=O)C(=O)N[C@@H](CCC(N)=O)C(=O)N[C@@H](CC(=O)O)C(=O)N[C@@H](Cc1ccccc1)C(=O)N[C@H](C(=O)N[C@@H](CC(N)=O)C(=O)N[C@@H](Cc1c[nH]c2ccccc12)C(=O)N[C@@H](CC(C)C)C(=O)N[C@@H](CC(C)C)C(=O)N[C@@H](C)C(=O)N[C@@H](CCC(N)=O)C(=O)N[C@@H](CCCCN)C(N)=O)C(C)C)[C@@H](C)CC [Peptide 1, hGIP(3–30), reference compound]
Agonism at the hGIPR (cAMP production by peptide alone) (hGIPR [1]): partial agonism
IC50 (mGIPR [2]): > 6000 nM
Agonism at the mGIPR (cAMP production by peptide alone) (mGIPR [2]): no significant agonism
IC50 (mGIPR [3]): 35.1 ± 16.9 nM

CC[C@H](C)[C@H](NC(=O)[C@H](CO)NC(=O)[C@H](Cc1ccc(O)cc1)NC(=O)[C@H](CC(=O)O)NC(=O)[C@H](CO)NC(=O)[C@@H](NC(=O)[C@@H](O)Cc1ccccc1)[C@@H](C)CC)C(=O)N[C@@H](C)C(=O)N[C@@H](CC(C)C)C(=O)N[C@@H](CC(=O)O)C(=O)N[C@@H](CCCCN)C(=O)N[C@H](C(=O)N[C@@H](CCCNC(=N)N)C(=O)N[C@@H](CCC(N)=O)C(=O)N[C@@H](CCC(N)=O)C(=O)N[C@@H](CCC(=O)O)C(=O)N[C@@H](Cc1ccccc1)C(=O)N[C@H](C(=O)N[C@@H](CC(N)=O)C(=O)N[C@@H](Cc1c[nH]c2ccccc12)C(=O)N[C@@H](CC(C)C)C(=O)N[C@@H](CC(C)C)C(=O)N[C@@H](C)C(=O)N[C@@H](CCC(N)=O)C(=O)N[C@@H](CCCCN)C(=O)NCC(=O)O)C(C)C)[C@@H](C)CC [Peptide 5, [Pla6, L14, R18, E21] hGIP(6–31)] (H-[PhLac]ISDYSIALDKIRQQEFVNWLLAQKG-OH)
Agonism at the hGIPR (cAMP production by peptide alone) (hGIPR [1]): no significant agonism
Agonism at the mGIPR (cAMP production by peptide alone) (mGIPR [2]): no significant agonism
IC50 (mGIPR [3]): 22.7 ± 7.9 nM
IC50 (hGIPR [4]): 2.98 ± 1.68 nM

CCCCCCCCCCCCCCCC(=O)N[C@@H](CCC(=O)NCCCC[C@H](NC(=O)[C@H](Cc1ccc(O)cc1)NC(=O)[C@H](CC(=O)O)NC(=O)[C@H](CO)NC(=O)[C@@H](NC(=O)[C@@H](O)Cc1ccccc1)[C@@H](C)CC)C(=O)N[C@H](C(=O)N[C@@H](C)C(=O)N[C@@H](CC(C)C)C(=O)N[C@@H](CC(=O)O)C(=O)N[C@@H](CCCCN)C(=O)N[C@H](C(=O)N[C@@H](CCCNC(=N)N)C(=O)N[C@@H](CCC(N)=O)C(=O)N[C@@H](CCC(N)=O)C(=O)N[C@@H](CCC(=O)O)C(=O)N[C@@H](Cc1ccccc1)C(=O)N[C@H](C(=O)N[C@@H](CC(N)=O)C(=O)N[C@@H](Cc1c[nH]c2ccccc12)C(=O)N[C@@H](CC(C)C)C(=O)N[C@@H](CC(C)C)C(=O)N[C@@H](C)C(=O)N[C@@H](CCC(N)=O)C(=O)N[C@@H](CCCCN)C(=O)NCC(=O)O)C(C)C)[C@@H](C)CC)[C@@H](C)CC)C(=O)O [Peptide 8, [Pla6, L14, R18, E21] hGIP(6–31)-K11 (γE-C16)] (H-[PhLac]ISDYK([γGlu-Palmitoyl])IALDKIRQQEFVNWLLAQKG-OH)
Agonism at the hGIPR (cAMP production by peptide alone) (hGIPR [1]): negligible cAMP production as agonists
Agonism at the mGIPR (cAMP production by peptide alone) (mGIPR [2]): negligible cAMP production as agonists
IC50 (mGIPR [3]): 1.55 ± 0.07 nM
IC50 (hGIPR [4]): 0.5 ± 0.08 nM
